Converted amounts (≈) assume the structure as drawn. Read-outs that look alike come from different tables or passages of the source.
What was measured:
P. vulgaris A21559 = assay: Minimum Inhibitory Concentration, tube dilution; format: cell-based; conditions: Proteus vulgaris, A21559, overnight 37° C.; table 6
B. fragilis A22862 = assay: Minimum Inhibitory Concentration, tube dilution; format: cell-based; conditions: Bacteroides fragilis, overnight 37° C., table 6
P. aeruginosa A21213 = assay: Minimum Inhibitory Concentration, tube dilution; format: cell-based; conditions: Pseudomonas aeruginosa, A21213, overnight 37° C.; table 6; read-out: MIC
E. coli A20341-1 = assay: Minimum Inhibitory Concentration, tube dilution; format: cell-based; conditions: Escherichia coli, A203411, overnight 37° C.; table 6
S. marcescens A20019 = assay: Minimum Inhibitory Concentration, tube dilution; format: cell-based; conditions: Serratia marcescens, A20019, overnight 37° C.; table 6
P. aeruginosa A9843A [1] = assay: animal or person; format: in vivo, mice; conditions: Pseudomonas aeruginosa, in Mus musculus, im, read-out: PD50 /treatment
Description: The PD50 (dose in mg/kg required to give protection to 50% of the infected mice) is indicated.

K. pneumoniae A-9664 = assay: Minimum Inhibitory Concentration, tube dilution; format: cell-based; conditions: Klebsiella pneumoniae, A9664, overnight 37° C.; table 6
B. fragilis A22696 = assay: Minimum Inhibitory Concentration, tube dilution; format: cell-based; conditions: Bacteroides fragilis, overnight 37° C., table 6, read-out: MIC
S. faecalis A20688 = assay: Minimum Inhibitory Concentration, tube dilution; format: cell-based; conditions: Enterococcus faecalis, A20688, overnight 37° C.; table 6; read-out: MIC
S. pneumoniae A-9585 = assay: Minimum Inhibitory Concentration, tube dilution; format: cell-based; conditions: Streptococcus pneumoniae, A9585, overnight 37° C.; table 6
K. pneumoniae A20468 = assay: Minimum Inhibitory Concentration, tube dilution; format: cell-based; conditions: Klebsiella pneumoniae, A20468, overnight 37° C.; table 6; read-out: MIC
[2] = system: S. aureus A15097 (Meth-res.); assay: Minimum Inhibitory Concentration, tube dilution; format: cell-based; conditions: Staphylococcus aureus, table 6
P. rettgeri A22424 = assay: Minimum Inhibitory Concentration, tube dilution; format: cell-based; conditions: Providencia rettgeri, overnight 37° C., table 6, read-out: MIC
P. mirabilis A-9900 = assay: Minimum Inhibitory Concentration, tube dilution; format: cell-based; conditions: Proteus mirabilis, A9900, overnight 37° C.; table 6
E. cloacae A9659 = assay: Minimum Inhibitory Concentration, tube dilution; format: cell-based; conditions: Enterobacter cloacae, A9659, overnight 37° C.; table 6; read-out: MIC
P. aeruginosa A-9843A = assay: Minimum Inhibitory Concentration, tube dilution; format: cell-based; conditions: Pseudomonas aeruginosa, A9843A, overnight 37° C.; table 6; read-out: MIC
S. pyogenes A-9604 = assay: Minimum Inhibitory Concentration, tube dilution; format: cell-based; conditions: Streptococcus pyogenes, A9604, overnight 37° C.; table 6
S. aureus A-9537 = assay: Minimum Inhibitory Concentration, tube dilution; format: cell-based; conditions: table 6
P. aeruginosa A9843A [3] = assay: animal or person; format: in vivo, mice; conditions: Pseudomonas aeruginosa, in Mus musculus, im, 3.5 h, read-out: PD50 /treatment
Procedure: (§1) Drugs were administered i.m. 0 to 2 hours post-infection (A9606) or 1 and 3.5 hours post-infection for the others.

M. morganii A15153 = assay: Minimum Inhibitory Concentration, tube dilution; format: cell-based; conditions: Morganella morganii, A15153, overnight 37° C.; table 6
P. mirabilis A9900 = assay: Protective effect, intramuscular treatment of infected mice (table 7); format: in vivo; conditions: Proteus mirabilis, A9900, im; i.m. 1 and 3.5 hours post-infection; ~1×10^7 organisms i.p.; read-out: PD50 /treatment
Procedure: as §1

S. aureus A9606 = assay: as above; format: in vivo; conditions: Staphylococcus aureus, A9606, im; i.m. 0 to 2 hours post-infection; ~1×10^9 organisms i.p.; read-out: PD50 /treatment
Procedure: as §1

H. influenzae A21518 = assay: Minimum Inhibitory Concentration, tube dilution; format: cell-based; conditions: Haemophilus influenzae, overnight 37° C., table 6
H. influenzae A-9833 = assay: Minimum Inhibitory Concentration, tube dilution; format: cell-based; conditions: Haemophilus influenzae, A9833; overnight 37° C.; table 6; read-out: MIC
[4] = Half-life in phosphate buffer pH 7.4; format: physicochemical
Procedure: To a solution of p-nitrobenzyl 3-[2-(1-pyridinium)ethylthio)]-6α[1-(R)-hydroxyethyl]-7-oxo-1-azabicyclo(3.2.0)hept-2-ene-carboxylate diphenylphosphate (0.16 g, 0.22 mmol) in wet tetrahydrofuran (10mL) was added ether (10mL), potassium phosphate monobasic-sodium hydroxide buffer pH 7.4 (16 mL, 0.05 M) and 10% palladium on charcoal (0.16 g). The resulting mixture was hydrogenated under 40 psi for 1 h at 25° C. The two phases were separated and the organic phase was extracted with water (2×3 mL). The aqeuous solutions were combined, washed with ether (2×10 ml) and poured on top of a column (1.5×6.2 cm) pf μ-bondapak C-18 after the traces of organic solvents have been removed under vacuum. Elution of the column with water gave after lyophylization of the appropriate fractions a yellowish powder 0.062 g (84%), ir (KBr) .nu.max : 3700-3000 (OH), 1755 (C--O of β-lactam), 1630 (pyridinium), 1590 cm^-1 (carboxylate), ^1 Hmr (D2 O): 1.22 (3H, d, J=6.4 Hz, CH3 CHOH), 2.92 (d, J=9.1 Hz, H-4), 2.97 (d, J=9.1 Hz, H-4), 3.20 (dd, J=2.5 Hz, J=6.1 Hz, H-6), 3.44 (t, J=6.0 Hz, CH2 S), 3.93 (dd, J=9.1 Hz, J=2.5 Hz, H-5), 4.82 (t, J=6.0 Hz, CH2 N^+), 8.04 (m, Hm of pyridinium), 8.5 (m, Hp of pyridinium), 8.82 (dd, J=3.2. Hz, J=1.1 Hz, Ho of pyridinium), uv (H2 O) λ max : 259 (ε5800), 296 (ε7030) mμ, .tau.1/2 =13.5 h (measured at a concentration of 10^-4 M in phosphate buffer pH 7.4 at 36.8° C.).

[5] = Pharmacokinetic parameters in the mouse after intramuscular dose; format: in vivo, mice; conditions: im, 20 mg/kg
Description: Also shown is the urinary recovery in the mice.
Compounds were solubilized in 0.1 M phosphate buffer pH 7.

[6] = system: S. aureus A-9606 (Pen-res.); assay: Minimum Inhibitory Concentration, tube dilution; format: cell-based; conditions: Staphylococcus aureus, Pen-res; table 6
E. coli A15119 = assay: Minimum Inhibitory Concentration, tube dilution; format: cell-based; conditions: Escherichia coli, A15119, overnight 37° C.; table 6
[7] = Staphylococcus aureus, A9537, 50% serum, read-out: MIC
[8] = Staphylococcus aureus, A9537, overnight 37° C., read-out: MIC

SMILES	MIC (P. vulgaris A21559) [µg/mL]	MIC (B. fragilis A22862) [µg/mL]	MIC (P. aeruginosa A21213) [µg/mL]	MIC (E. coli A20341-1) [µg/mL]	MIC (S. marcescens A20019) [µg/mL]	ED50 (P. aeruginosa A9843A [1]) [mg/kg]	MIC (K. pneumoniae A-9664) [µg/mL]	MIC (S. faecalis A20688) [µg/mL]	MIC (S. pneumoniae A-9585) [µg/mL]	MIC [2] [µg/mL]	MIC (P. rettgeri A22424) [µg/mL]	MIC (P. mirabilis A-9900) [µg/mL]	MIC (E. cloacae A9659) [µg/mL]	MIC (P. aeruginosa A-9843A) [µg/mL]	MIC (S. pyogenes A-9604) [µg/mL]	MIC [6] [µg/mL]	MIC (S. aureus A-9537; [7]) [µg/mL]	MIC (S. aureus A-9537; [8]) [µg/mL]	MIC (E. coli A15119) [µg/mL]	further results
CC(C[n+]1ccccc1)SC1=C(C(=O)[O-])N2C(=O)[C@H]([C@@H](C)O)[C@H]2C1 (single isomer, unassigned) [Ex. 15 (cmp. "A")]	0.03 (≈ 0.0861 µM)	0.13 (≈ 0.373 µM)	1 (≈ 2.87 µM)	0.03 (≈ 0.0861 µM)	0.06 (≈ 0.172 µM)	3.1	0.06 (≈ 0.172 µM)													MIC (B. fragilis A22696): 0.25 µg/mL (≈ 0.718 µM)
C[C@@H](O)[C@H]1C(=O)N2C(C(=O)[O-])=C(SC3CCCCC3[n+]3ccccc3)C[C@H]12 (single isomer, unassigned) [Ex. 16 (cmp. "B"), (5R,6S) 3-[2-[(R or S)-(1-pyridinium)]-1-(R or S)-cyclohexylthio]-6-[1-(R)-hydroxyethyl]-7-oxo-1-azabicyclo(3.2.0)hept-2-ene-2-carboxylate]				0.06 (≈ 0.154 µM)			0.13 (≈ 0.335 µM)	8 (≈ 20.6 µM)	0.002 (≈ 0.00515 µM)	0.5 (≈ 1.29 µM)	4 (≈ 10.3 µM)	0.13 (≈ 0.335 µM)	0.5 (≈ 1.29 µM)	32 (≈ 82.4 µM)	0.004 (≈ 0.0103 µM)					MIC (K. pneumoniae A20468): 0.5 µg/mL (≈ 1.29 µM); MIC (S. aureus A-9537; overnight 37° C.): 0.013 µg/mL (≈ 0.0335 µM)
Cc1cc[n+](CCSC2=C(C(=O)[O-])N3C(=O)[C@H]([C@@H](C)O)[C@H]3C2)cc1 [Example 8, 3-[2-(1-(4-methylpyridinium))ethylthio]-6α-[1(R)-hydroxyethyl]-7-oxo-1-azabicyclo(3.2.0)hept-2-ene-2-carboxylate]	0.06 (≈ 0.172 µM)	0.06 (≈ 0.172 µM)							0.03 (≈ 0.0861 µM)	> 63				8 (≈ 23 µM)	0.03 (≈ 0.0861 µM)	0.06 (≈ 0.172 µM)	0.06 (≈ 0.172 µM)	0.03 (≈ 0.0861 µM)		ED50 (P. aeruginosa A9843A [3]): 0.9 mg/kg; MIC (M. morganii A15153): 0.03 µg/mL (≈ 0.0861 µM); ED50 (P. mirabilis A9900): ~38 mg/kg; ED50 (S. aureus A9606): 0.8 mg/kg; MIC (H. influenzae A21518): > 32 µg/mL; MIC (H. influenzae A-9833): > 32 µg/mL; half-life at 100 µM ([4]; phosphate buffer, pH 7.4, τ1/2 (half-life)): 12.8 h; AUC ([5]; blood): 4600 ng·h/mL; Cmax ([5]; blood): 10600 ng/mL; half-life ([5]; blood, read-out: T1/2 (blood)): 8.2 min; dose excreted ([5]; urine, read-out: Urine Recovery): 47 ± 7%
COc1ccc[n+](CCSC2=C(C(=O)[O-])N3C(=O)[C@H]([C@@H](C)O)[C@H]3C2)c1 [Example 10, 3-[2-(3-methoxy-1-pyridinium)ethylthio]-6α-[1'-(R)-hydroxyethyl]-7-oxo-1-azabicyclo(3.2.0)-hept-2-ene-2-carboxylate]	0.06 (≈ 0.165 µM)		1 (≈ 2.74 µM)			1.8	0.06 (≈ 0.165 µM)		0.002 (≈ 0.00549 µM)					4 (≈ 11 µM)	0.002 (≈ 0.00549 µM)	0.016 (≈ 0.0439 µM)	0.06 (≈ 0.165 µM)	0.008 (≈ 0.022 µM)	0.03 (≈ 0.0823 µM)	half-life ([4]; 0.1 m phosphate buffer, pH 7.4, T1/2 (half-life)): 20 h
CSc1ccc[n+](CCSC2=C(C(=O)[O-])N3C(=O)[C@H]([C@@H](C)O)[C@H]3C2)c1 [Example 11, (5R,6S)-3-[[2-(3-methylthiopyridinio)ethyl]thio]-6-[1-(R)-hydroxyethyl]-7-oxo-1-azabicyclo[3.2.0]hept-2-ene2-carboxylate]	0.03 (≈ 0.0788 µM)	0.06 (≈ 0.158 µM)	1 (≈ 2.63 µM)	0.03 (≈ 0.0788 µM)	0.06 (≈ 0.158 µM)	2.4	0.06 (≈ 0.158 µM)	0.25 (≈ 0.657 µM)	0.001 (≈ 0.00263 µM)		0.25 (≈ 0.657 µM)		0.06 (≈ 0.158 µM)	4 (≈ 10.5 µM)	0.001 (≈ 0.00263 µM)	0.008 (≈ 0.021 µM)	0.03 (≈ 0.0788 µM)	0.004 (≈ 0.0105 µM)	0.03 (≈ 0.0788 µM)	half-life ([4]; phosphate buffer, pH 7.4, 36.8° C., read-out: t1/2 (half-life) (converted)): 20 h
CSc1n(C)cc[n+]1CCSC1=C(C(=O)[O-])N2C(=O)[C@H]([C@@H](C)O)[C@H]2C1 [Example 13, (5R, 6S)-3-[2-(2-methylthio-3-methylimidazolio)ethyl-thio]-6-[1-(R)-hydroxyethyl]-7-oxo-1-azabicyclo[3.2.0]hept-2-ene-2-carboxylate]	0.03 (≈ 0.0782 µM)		2 (≈ 5.22 µM)	0.03 (≈ 0.0782 µM)	0.06 (≈ 0.156 µM)			0.5 (≈ 1.3 µM)	0.001 (≈ 0.00261 µM)			0.03 (≈ 0.0782 µM)		32 (≈ 83.4 µM)	0.002 (≈ 0.00522 µM)	0.03 (≈ 0.0782 µM)	0.03 (≈ 0.0782 µM)	0.008 (≈ 0.0209 µM)	0.03 (≈ 0.0782 µM)	

— patent publication US4642341A, “Carbapenem antibiotics” (priority 1985, dated 1987)
